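Step 1: Grow cells in 96-well plates. Step 2: Expose to compound for 48 hours at 5 concentrations. Step 3: Interpolate endpoints linearly; if unreached, use highest concentration. TGI: concentration producing complete growth inhibition.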
Columns and labels:
Test in all cases: DTP human tumour cell line panel, 48 h
ACHN renal = test system: ACHN renal
HT29 colon = test system: HT29 colon
MDA-MB-435 = test system: MDA-MB-435
NCI-H226 lung = test system: NCI-H226 lung
RPMI-8226 leukemia = test system: RPMI-8226 leukemia
SF-268 CNS = test system: SF-268 CNS
SK-MEL-5 melanoma = test system: SK-MEL-5 melanoma
SNB-19 CNS = test system: SNB-19 CNS
T-47D breast = test system: T-47D breast
UACC-257 melanoma = test system: UACC-257 melanoma

Compound	TGI (ACHN renal)	TGI (HT29 colon)	TGI (MDA-MB-435)	TGI (NCI-H226 lung)	TGI (RPMI-8226 leukemia)	TGI (SF-268 CNS)	TGI (SK-MEL-5 melanoma)	TGI (SNB-19 CNS)	TGI (T-47D breast)	TGI (UACC-257 melanoma)
CCOC(=O)c1c(O)[nH]c(=O)c(CC)c1C	> 100 µM	> 100 µM	> 100 µM	> 100 µM	> 100 µM	> 100 µM	> 100 µM	> 100 µM	> 100 µM	> 100 µM
CN(C)CCOc1ccc(I)cc1Cc1ccccc1	24.7 µM	17 µM	15.4 µM	33.9 µM	23.9 µM	27.4 µM	14.2 µM	28 µM	16.2 µM	29.2 µM
CC(NC1=CC(=O)c2ncccc2C1=O)C(O)c1ccccc1 (stereo not given)	43.7 µM	28.3 µM	3.02 µM	20.8 µM	53.9 µM	53.4 µM	2.6 µM	20 µM	56 µM	10.6 µM
O=C(CCCN1CCC2(CC1)C(=O)NC(=O)N2c1ccccc1)c1ccc(F)cc1	> 100 µM	> 100 µM	> 100 µM	> 100 µM	> 100 µM	> 100 µM	> 100 µM	> 100 µM	> 100 µM	> 100 µM
O=[N+]([O-])c1ccc(Cl)cc1-n1nc(-c2ccccc2)cc1-c1ccccc1	> 100 µM	> 100 µM	> 100 µM	> 100 µM	> 100 µM	> 100 µM	> 100 µM	> 100 µM	> 100 µM	> 100 µM
CC(=O)OC1/C(=C/c2ccc([N+](=O)[O-])cc2)C[C@H]2[C@@H]3CC=C4C[C@@H](OC(C)=O)CC[C@]4(C)[C@H]3CC[C@]12C (stereo not given in full)	> 100 µM	> 100 µM	> 100 µM	> 100 µM	> 100 µM	> 100 µM	> 100 µM	> 100 µM	> 100 µM	> 100 µM
COC(=O)C1Cc2ccc(C)cc2C1=O (stereo not given)	> 100 µM	> 100 µM	> 100 µM	> 100 µM	> 100 µM	> 100 µM	> 100 µM	> 100 µM	> 100 µM	> 100 µM
CC(=O)N1c2ccccc2C(C)(C)OC1C(Cl)(Cl)Cl (stereo not given)	> 100 µM	> 100 µM	> 100 µM	> 100 µM	33.6 µM	> 100 µM	53.4 µM	> 100 µM	> 100 µM	84.3 µM
COC(=O)[C@@H]1C=C[C@@H](C#N)n2c(=O)n(-c3ccccc3)c(=O)n21	> 100 µM	93.2 µM	> 100 µM	40.4 µM	73.3 µM	> 100 µM	> 100 µM	> 100 µM	94.1 µM	> 100 µM
Cc1cn(CC2=NCCN2)c(=O)[nH]c1=O	> 100 µM	> 100 µM	> 100 µM	> 100 µM	> 100 µM	> 100 µM	> 100 µM	> 100 µM	> 100 µM	> 100 µM
Clc1ccccc1/C=C/c1nsc(/C=C/c2ccccc2Cl)n1	> 100 µM	> 100 µM	> 100 µM	> 100 µM	84.5 µM	> 100 µM	> 100 µM	> 100 µM	42.8 µM	64.1 µM
CNNC1=NS(=O)(=O)c2cc(C)c(Cl)cc2S1	> 10 µM	> 10 µM	> 10 µM	> 10 µM	> 10 µM	> 10 µM	> 10 µM	> 10 µM	> 10 µM	> 10 µM
Cc1c2c(c(C)n1-c1ccccc1)C(=O)N(CCSC(=N)N)C2=O	> 100 µM	> 100 µM	> 100 µM	> 100 µM	> 100 µM	> 100 µM	> 100 µM	> 100 µM	73.6 µM	> 100 µM
COC(=O)C1Cc2c([nH]c3ccccc23)C(c2cccc(O)c2)N1 (stereo not given)	> 100 µM	83.4 µM	36.6 µM	> 100 µM	87.3 µM	> 100 µM	> 100 µM	> 100 µM	> 100 µM	> 100 µM
Cc1ccc(/C=C2\CN(C)CC3C(c4ccc(C)cc4)=C(C#N)C(=O)NC23)cc1 (stereo not given)	> 50 µM	> 50 µM	> 50 µM	> 50 µM	> 50 µM	> 50 µM	> 50 µM	> 50 µM	> 50 µM	> 50 µM
O=C(c1ccc(Cl)cc1Cl)N(Cc1cccnc1)C(=S)N(Cc1cccnc1)C(=O)c1ccc(Cl)cc1Cl	23.5 µM	5.52 µM	66 µM	38.3 µM	> 100 µM	20.4 µM	11.9 µM	25.1 µM	45.7 µM	23.5 µM
N#Cc1cccc(C2ON=C(c3ccc([N+](=O)[O-])cc3)N2C23CC4CC(CC(C4)C2)C3)c1 (stereo not given)	> 100 µM	> 100 µM	> 100 µM	> 100 µM	> 100 µM	> 100 µM	> 100 µM	> 100 µM	> 100 µM	> 100 µM
COc1c(Cl)ccc(Cl)c1C(=O)NNC(=O)c1c(Cl)c(Cl)c(Cl)c(Cl)c1-c1nc2ccc(C(=O)c3ccccc3)cc2[nH]1	> 100 µM	> 100 µM	> 100 µM	> 100 µM	90.8 µM	> 100 µM	> 100 µM	> 100 µM	> 100 µM	> 100 µM

Compound	TGI (ACHN renal)	TGI (HT29 colon)	TGI (MDA-MB-435)	TGI (NCI-H226 lung)	TGI (RPMI-8226 leukemia)	TGI (SF-268 CNS)	TGI (SK-MEL-5 melanoma)	TGI (SNB-19 CNS)	TGI (T-47D breast)	TGI (UACC-257 melanoma)
C[C@H](CCC1=NCCN1)[C@H]1CC[C@H]2[C@@H]3[C@H](O)C[C@@H]4C[C@H](O)CC[C@]4(C)[C@H]3CC[C@]12C	30 µM	10.4 µM	26.7 µM	30.2 µM	35.3 µM	26 µM	27.3 µM	26.1 µM	31.3 µM	28.3 µM
O=C(O)C(Cc1ccc2c(c1)CCC2)(Cc1ccc2c(c1)CCC2)C(=O)O	> 100 µM	> 100 µM	> 100 µM	> 100 µM	> 100 µM	> 100 µM	> 100 µM	> 100 µM	> 100 µM	> 100 µM
CCOc1cc(/C=N\N(C)C)cc(/C=N\N(C)C)c1O	56 µM	> 100 µM	> 100 µM	> 100 µM	> 100 µM	61.2 µM	73.2 µM	> 100 µM	> 100 µM	> 100 µM
CN(C)CCN1C(=O)CC[C@@]2(C)C1=CC[C@@H]1[C@@H]2CC[C@@]2(C)[C@H]1CC[C@]2(C)O	> 100 µM	> 100 µM	> 100 µM	> 100 µM	> 100 µM	> 100 µM	> 100 µM	> 100 µM	> 100 µM	> 100 µM
N#C/C(=C1\N=C(c2ccccc2O)Oc2ccccc21)c1ccc([N+](=O)[O-])cc1	> 100 µM	> 100 µM	> 100 µM	> 100 µM	> 100 µM	> 100 µM	> 100 µM	> 100 µM	> 100 µM	> 100 µM
O=C(NCCN1C(=O)CN=C(c2ccc(Cl)cc2)c2cc(Cl)ccc21)OCc1ccccc1	32.1 µM	31.8 µM	32.9 µM	35.5 µM	53.9 µM	29.9 µM	30.2 µM	50.8 µM	> 100 µM	34.1 µM
O=c1[nH]c2cc(C(F)(F)F)ccc2nc1Cc1ccccc1	> 100 µM	> 100 µM	> 100 µM	> 100 µM	> 100 µM	> 100 µM	> 100 µM	> 100 µM	> 100 µM	> 100 µM
O=C(O)c1cccc(S(=O)(=O)NN2C(=O)CSC2c2ccccc2)c1 (stereo not given)	> 100 µM	> 100 µM	> 100 µM	> 100 µM	> 100 µM	> 100 µM	> 100 µM	> 100 µM	> 100 µM	> 100 µM
COc1cc([C@@H]2c3cc4c(cc3[C@H](OC3OC5COC(C(C)C)OC5C(O)C3O)C3COC(=O)[C@@H]32)OCO4)cc(OC)c1O (stereo not given in full)	15.6 µM	11.1 µM	19.2 µM	24 µM	42.5 µM	35 µM	22.6 µM	30.1 µM	60.1 µM	22.3 µM
COc1cc2c(cc1OC)C1Cc3ccccc3CCN1CC2 (stereo not given)	> 100 µM	> 100 µM	> 100 µM	> 100 µM	> 100 µM	> 100 µM	> 100 µM	> 100 µM	> 100 µM	> 100 µM
CC(C)(C)c1cc(C(=O)/C=C/c2ccc(O)c(O)c2O)cc(C(C)(C)C)c1O	18.9 µM	27.7 µM	36.7 µM	33.2 µM	4.4 µM	> 51.4 µM	19 µM	> 29.3 µM	13.3 µM	10.6 µM
CC(=O)Nc1ccc(Nc2cc(=O)n(C)c(=O)[nH]2)cc1	> 100 µM	> 100 µM	> 100 µM	> 100 µM	> 100 µM	> 100 µM	> 100 µM	> 100 µM	> 100 µM	> 100 µM
O/N=c1/ccn(O)c2ccccc12	2.67 µM	4.24 µM	17.4 µM	7.14 µM	0.542 µM	5.74 µM	2.77 µM	14.1 µM	10.3 µM	21 µM
Cc1cccc(/C=N/NC(=S)NCc2ccccn2)n1	67.5 µM	> 100 µM	> 100 µM	> 100 µM	> 100 µM	> 93 µM	70.9 µM	> 100 µM	> 100 µM	> 100 µM
N#Cc1ncn(-c2ccccc2)c1N	> 100 µM	> 100 µM	> 100 µM	> 100 µM	> 100 µM	> 100 µM	> 100 µM	> 100 µM	> 100 µM	> 100 µM
COc1ncnc2c1cnn2Cc1cn(COCC(O)CO)nn1 (stereo not given)	> 100 µM	> 100 µM	> 100 µM	> 100 µM	> 100 µM	35 µM	> 100 µM	> 100 µM	> 100 µM	> 100 µM
COc1cc(N(CCC#N)CCC#N)ccc1/C(N=Nc1ccc(C)cc1)=N/NC(=O)c1cc(Br)ccc1O	> 100 µM	> 100 µM	> 100 µM	> 100 µM	> 100 µM	91.4 µM	37 µM	> 100 µM	47.3 µM	83.8 µM

From PubChem BioAssay (NCI)
